Results on two compounds are retold here after patent publication US20020082249A1, “Prodrugs of aspartyle protease inhibitors” (priority 1997, published 2002).

A short description of data set [1]: Pharmacokinetics in Sprague-Dawley rats following single oral dose. To be noted: for AUC: rats; for Cmax / half-life: both, Sprague-Dawley, rat, in vivo, po.
Data set [2] can be described thus: Similar oral pharmacokinetic study on dogs (solid capsule and solution formulations). Conditions: dog, in vivo, 17 mg/kg.

With `CC(C)CN(C[C@@H](OP(=O)(O)O)[C@H](Cc1ccccc1)NC(=O)O[C@H]1CCOC1)S(=O)(=O)c1ccc(N)cc1` [Compound 229], the “compound 229 detected in blood samples” value in data set [1] (after oral administration, first time point blood sample or later samples, suggests first pass metabolism to VX-478) is on record as “none of that compound was detected”. Moreover, the “delivery of VX-478, aqueous dose of 229 versus VX-478 formulations” value in data set [1] (aqueous dose of compound 229 compared with the two non-aqueous formulations used for VX-478) was “equivalence in delivery”. Also, the “bioavailability, aqueous solution versus other vehicles” value in data set [1] (oral administration of compound 229 as an aqueous solution, in comparison to the other vehicles studied) is “improved bioavailability”. Moreover, the AUC amounted to 10.6 ug*hr/m1 in data set [1] (compound 229 PO, 40 mg/Kg molar equiv. of VX-478, vehicle H2O:PG:EtOH 5:4:1); 11.7 ug*hr/m1 in data set [1] (compound 229 PO, 40 mg/Kg molar equiv. of VX-478, vehicle H2O, VX-478 measured in plasma); 7.4 ug*hr/m1 in data set [1] (compound 229 PO, 40 mg/Kg molar equiv. of VX-478, vehicle PEG 400); 8.2 ug*hr/m1 in data set [1] (compound 229 PO, 40 mg/Kg molar equiv. of VX-478, vehicle TPGS/PEG 400/PG).

As to `CC(C)CN(C[C@@H](O)[C@H](Cc1ccccc1)NC(=O)O[C@H]1CCOC1)S(=O)(=O)c1ccc(N)cc1` [VX-478], the AUC in data set [2] was 23500 ± 7400 ng·h/mL; in data set [1] (VX-478 41 mg/Kg PO, vehicle 33% TPGS/PEG 400/PG), 29.6 ug*hr/m1; in data set [1] (VX-478 50 mg/Kg PO, vehicle 12.5% TPGS/PEG 400/PG), 16.2 ug*hr/m1. For the same compound, the Cmax in data set [2] was 6800 ± 1100 ng/mL; in data set [1] (41 mg/kg), 14 µM; in data set [1] (50 mg/kg), 6 µM. Moreover, in data set [2], the Tmax turned out to be 1 ± 0.8 h. Also, the half-life in data set [1] (41 mg/kg) was 150 min; in data set [1] (50 mg/kg), 132 min.
